Measured values taken from patent US6667387B1, “HCV core peptides” (priority 1992, dated 2003).
Ends that are not written are not given here.

How the values were obtained:
[1] = test system: antibodies in sera from HCV-seropositive donors; assay: ELISA with HCV antibody-positive sera (biotinylated peptides on streptavidin- or avidin-coated plates, unbiotinylated peptides coated directly); assay type: binding, human; settings: for PEPTIDE ELISA (O.D.): Table 12, biotinylated 20-mers
Experimental: (§1) Where peptides were to be coated directly, stock solutions of the peptides were diluted in sodium carbonate buffer, pH 9.6 and used to coat polystyrene microtiter plates at a peptide concentration of 2 to 5 micrograms per milliliter for 1 hour at 37° C.
(§2) In cases where biotinylated peptides were to be evaluated, plates were first coated with streptavidin in sodium carbonate buffer, pH 9.6 at a concentration of 3 micrograms per milliliter for 1 hour at 37° C. The plates were then washed to remove excess, unbound protein. A working solution of the biotinylated peptide at 1 microgram per milliliter in sodium carbonate buffer was then added to the wells of the microtiter plate and incubated for 1 hours at 37° C.
(§3) Once the plates had been coated with antigen, any remaining free binding sites on the plastic were blocked with casein. After washing, a dilution of the appropriate antisera, usually 1:100, was added to the wells of the plates and incubated for 1 hour at 37° C.
(§4) After washing to remove unbound material, specific antibody binding was detected by incubating the plates with goat anti-human immunoglobulin antibodies conjugated to the enzyme horseradish peroxidase. Following removal of unbound conjugate by washing, a solution containing H2O2 and 3,3′,5,5′-tetramethylbenzidine was added.
(§5) Reactions were stopped after a suitable interval by addition of sulfuric acid. […] Absorbance measurements were made at a wavelength of 450 nanometers and all data are expressed as an optical density value at this wavelength.
The unbiotinylated peptides were adsorbed onto the wells of polystyrene microtiter plates at a concentration of 3 micrograms per milliliter.
The biotinylated peptides were bound at a concentration of 1 microgram per milliliter to streptavidin-coated microtiter plates. Sera known to contain antibodies to these peptides were used for the evaluation and were tested at a 20-fold dilution.
To investigate further the enhanced antibody recognition of biotinylated HCV peptides bound to streptavidin or avidin as compared to direct adsorption on plastic, the influence of peptide coating concentration was investigated. Three peptides (HCV peptides II, XI, and XVI) were coated in concentrations ranging from 10 nanograms per milliliter to 3 micrograms per milliliter in a volume of 200 microliters per microtiter plate well. For direct coating, the unbiotinylated versions of these peptides were used. The biotinylated versions of these peptides were used to coat wells to which streptavidin had previously been adsorbed. Sera known to contain antibodies to these peptides were used at a dilution of 1 to 100 to evaluate the magnitude of antibody binding.
(§6) Unbiotinylated HCV peptide I was coated directly onto the wells of a polystyrene ELISA plate at a concentration of 3 micrograms per milliliter in sodium carbonate buffer, pH 9.6. Biotinylated HCV peptide I was bound to streptavidin-coated wells using a stock solution containing the peptide at a concentration of 1 microgram per milliliter. The resulting plates were then incubated in parallel with a panel of sera from HCV-seropositive donors. […] Two of the sera (8326 and 8244) recognize the biotinylated version of this peptide far better than the unbiotinylated version. The specificity of the antibody reaction is also reflected by the low optical density values obtained for 5 serum samples from uninfected donors (F88, F89, F76, F136, and F6).
To determine how well biotinylated peptides would function in a mixture when bound to streptavidin- or avidin-coated plates, two mixtures were made of the N-terminally biotinylated versions of the HIV-1 peptides TM-HIV-1 (hereabove referred to as 1a.1) and V3-nm (hereabove referred to as 1b.4), the HIV-2 peptide TM-HIV-2 (hereabove referred to as 2a), and the hepatitis C virus peptides II, IX, and XVIII. […]

[2] = ELISA with seronegative / negative control sera (specificity); assay type: binding, human
Experimental: as §1, §2, §3, §4, §5, §6
To determine how well biotinylated peptides would function in a mixture when bound to streptavidin- or avidin-coated plates, two mixtures were made of the N-terminally biotinylated versions of the HIV-1 peptides TM-HIV-1 (hereabove referred to as 1a.1) and V3-nm (hereabove referred to as 1b.4), the HIV-2 peptide TM-HIV-2 (hereabove referred to as 2a), and the hepatitis C virus peptides II, IX, and XVIII. Mixture A contained each of the six biotinylated peptides at a concentration of 1 microgram per milliliter (6 micrograms per milliliter peptide, total) while in mixture B, each peptide was present at a concentration of 0.1 microgram per milliliter (0.6 microgram per milliliter peptide, total). The individual peptides were coated at a concentration of 1 microgram per milliliter. For purposes of comparison, mixtures A and B were also coated directly onto the wells of a microtiter plate. Samples from HIV-1, HIV-2, and HCV-seropositive donors were tested and compared to sera from seronegative blood donors. A cut-off absorbance value of 0.250 was used to determine whether a reaction was positive or negative. Absorbance values equal or greater than 0.250 were considered positive while absorbance values below this value were considered negative.

In the case of “H2N-Met-Ser-Thr-Ile-Pro-Lys-Pro-Gln-Arg-Lys-Thr-Lys-Arg-Asn-Thr-Asn-Arg-Arg-Pro-Gln-CONH2 (H-MSTIPKPQRKTKRNTNRRPQ-NH2) [HCV peptide I]”, the “optical density (450 nm)” value ([1]; Table 7, serum 6378, HCV antibody-positive) is reported as 2.161, the “optical density (450 nm)” value ([1]; Table 7, serum 8242, HCV antibody-positive) is reported as 1.367 and the “optical density (450 nm)” value ([1]; Table 7, serum 8243, HCV antibody-positive) is reported as 2.211. For the same substance, the “optical density (450 nm)” value ([1]; Table 7, serum 8244, HCV antibody-positive) was 0.077, the “optical density (450 nm)” value ([1]; Table 7, serum 8248, HCV antibody-positive) was 2.042 and the “optical density (450 nm)” value ([1]; Table 7, serum 8316, HCV antibody-positive) was 2.394. The “optical density (450 nm)” value ([1]; Table 7, serum 8318, HCV antibody-positive) was 2.385, the “optical density (450 nm)” value ([1]; Table 7, serum 8320, HCV antibody-positive) was 2.760 and the “optical density (450 nm)” value ([1]; Table 7, serum 8326, HCV antibody-positive) was 0.525. For the same substance, the “optical density (450 nm)” value ([1]; Table 7, serum 8329, HCV antibody-positive) was 2.633, the “optical density (450 nm)” value ([1]; Table 7, serum 8330, HCV antibody-positive) was 1.985 and the “optical density (450 nm)” value ([1]; Table 7, serum 8333, HCV antibody-positive) was 2.143. The “optical density (450 nm)” value ([1]; Table 7, serum 8334, HCV antibody-positive) was 2.271, the “optical density (450 nm)” value ([1]; Table 7, serum 8336, HCV antibody-positive) was 1.558 and the “optical density (450 nm)” value ([1]; Table 7, serum 8344, HCV antibody-positive) was 1.878. The “optical density (450 nm)” value ([1]; Table 7, serum 8364, HCV antibody-positive) was 2.705, the “optical density (450 nm)” value ([1]; Table 7, serum 8374, HCV antibody-positive) was 1.070 and the “optical density (450 nm)” value ([1]; Table 7, serum 8387, HCV antibody-positive) was 1.427. The “optical density (450 nm)” value ([2]; Table 7, serum F8, HCV antibody-negative) was 0.000, the “optical density (450 nm)” value ([2]; Table 7, serum F76, HCV antibody-negative) was 0.000 and the “optical density (450 nm)” value ([2]; Table 7, serum F88, HCV antibody-negative) was 0.000. The “optical density (450 nm)” value ([2]; Table 7, serum F89, HCV antibody-negative) was 0.017 and the “optical density (450 nm)” value ([2]; Table 7, serum F136, HCV antibody-negative) was 0.006.
In the case of TRKTSERSQPRGRRQPIPKV, the “optical density (450 nm)” value ([1]; Table 4E, serum 8272, 20-fold dilution) is reported as 1.220, the “optical density (450 nm)” value ([1]; Table 4E, serum 8273, 20-fold dilution) is reported as 1.026 and the “optical density (450 nm)” value ([1]; Table 4E, serum 8274, 20-fold dilution) is reported as 2.662. The “optical density (450 nm)” value ([1]; Table 4E, serum 8275, 20-fold dilution) was 1.724, the “optical density (450 nm)” value ([1]; Table 4E, serum 8276, 20-fold dilution) was 2.616 and the “optical density (450 nm)” value ([1]; Table 4E, serum 8277, 20-fold dilution) was 1.796. The “optical density (450 nm)” value ([1]; Table 4E, serum 8278, 20-fold dilution) was 1.746, the “optical density (450 nm)” value ([1]; Table 4E, serum 8284, 20-fold dilution) was 0.757 and the “PEPTIDE ELISA (O.D.)” value ([1]; serum 0843) was 1.378. The “PEPTIDE ELISA (O.D.)” value ([1]; serum 8240) was 2.021, the “PEPTIDE ELISA (O.D.)” value ([1]; serum 8241) was 0.274 and the “PEPTIDE ELISA (O.D.)” value ([1]; serum 8242) was 2.315. The “PEPTIDE ELISA (O.D.)” value ([1]; serum 8332) was 1.455, the “PEPTIDE ELISA (O.D.)” value ([1]; serum 8339) was 2.598 and the “PEPTIDE ELISA (O.D.)” value ([1]; serum 8350) was 0.685. The “PEPTIDE ELISA (O.D.)” value ([1]; serum 8377) was 0.076, the “PEPTIDE ELISA (O.D.)” value ([1]; serum 8378) was 1.228 and the “PEPTIDE ELISA (O.D.)” value ([1]; serum 8388) was 2.162. For the same substance, the “optical density (450 nm)” value ([2]; Table 4E, negative serum) was 0.070.
For RNTNRRPQDVKFPGGGQIVG, the “optical density (450 nm)” value ([1]; Table 4D, serum 8241, 20-fold dilution) was 1.219, the “optical density (450 nm)” value ([1]; Table 4D, serum 8242, 20-fold dilution) was 1.976 and the “optical density (450 nm)” value ([1]; Table 4D, serum 8243, 20-fold dilution) was 1.859. The “optical density (450 nm)” value ([1]; Table 4D, serum 8247, 20-fold dilution) was 1.072, the “optical density (450 nm)” value ([1]; Table 4D, serum 8248, 20-fold dilution) was 2.742 and the “optical density (450 nm)” value ([1]; Table 4D, serum 8250, 20-fold dilution) was 2.471. For the same substance, the “optical density (450 nm)” value ([1]; Table 4D, serum 8271, 20-fold dilution) was 1.471, the “optical density (450 nm)” value ([1]; Table 4D, serum 8272, 20-fold dilution) was 2.471 and the “optical density (450 nm)” value ([1]; Table 4D, serum 8273, 20-fold dilution) was 1.543. For the same substance, the “optical density (450 nm)” value ([1]; Table 4D, serum 8274, 20-fold dilution) was 2.503, the “optical density (450 nm)” value ([1]; Table 4D, serum 8275, 20-fold dilution) was 1.595 and the “optical density (450 nm)” value ([1]; Table 4D, serum 8276, 20-fold dilution) was 1.976. The “optical density (450 nm)” value ([1]; Table 4D, serum 8277, 20-fold dilution) was 0.735 and the “optical density (450 nm)” value ([2]; Table 4D, negative serum) was 0.050.
